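Five compound concentrations were applied to cells in 96-well plates for 48 hours; endpoints were derived by simple linear interpolation of the resulting dose-response curve. TGI marks complete inhibition of growth.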
Tests used:
Assay in all cases: DTP human tumour cell line panel, 48 h
T-47D breast = tested on: T-47D breast
KM12 colon = tested on: KM12 colon
HOP-92 NSCLC = tested on: HOP-92 NSCLC
ACHN renal = tested on: ACHN renal
MDA-MB-231 breast = tested on: MDA-MB-231 breast
SF-295 CNS = tested on: SF-295 CNS
M14 melanoma = tested on: M14 melanoma
MDA-N = tested on: MDA-N
PC-3 prostate = tested on: PC-3 prostate
A549 NSCLC = tested on: A549 NSCLC
NCI-H226 lung = tested on: NCI-H226 lung

Row | Structure (SMILES) | TGI (T-47D breast) [µM] | TGI (KM12 colon) [µM] | TGI (HOP-92 NSCLC) [µM] | TGI (ACHN renal) [µM] | TGI (MDA-MB-231 breast) [µM] | TGI (SF-295 CNS) [µM] | TGI (M14 melanoma) [µM] | TGI (MDA-N) [µM] | TGI (PC-3 prostate) [µM] | TGI (A549 NSCLC) [µM] | TGI (NCI-H226 lung) [µM]
1 | CC1OC(O[C@H]2CC[C@]3(C)[C@H]4CC=C5[C@@H]6[C@@H](C)[C@H](C)CC[C@]6(C(=O)O)CC[C@@]5(C(=O)O)[C@]4(C)CC[C@H]3C2(C)C)C(O)C(O)C1O (stereo partly specified) | > 75 | > 75 | > 75 | > 75 | > 75 | > 75 | > 75 | > 75 | > 75 |  | 
2 | CCOC(=O)CC[C@@H](NC(=O)c1ccc(N[C@@H]2c3cc4c(cc3C(c3cc(OC)c(O)c(OC)c3)C3C(=O)OC[C@@H]32)OCO4)cc1)C(=O)OCC (stereo partly specified) |  |  | 0.0808 | 0.0379 |  | 0.0497 | > 10 |  |  |  | 
3 | CC(c1cccc2ccccc12)/[N+]([O-])=C/c1ccccc1 (stereo unspecified) |  | > 100 | > 100 | > 100 |  | > 100 |  |  |  | > 100 | 
4 | NC1CC(=O)c2cc(Br)sc21 (stereo unspecified) | > 100 | > 100 |  | > 100 | > 100 |  | > 100 | > 100 | > 100 | > 100 | 
5 | CC1[C@@H](OCc2ccccc2)COC(=O)N1Cc1ccccc1 (stereo partly specified) |  | > 100 | 92.9 | > 100 | > 100 | > 100 | > 100 | > 100 | > 100 | > 100 | > 100
6 | Cc1c2c(n(CCc3ccccc3)c1C)NN=C(C#N)S2(=O)=O | > 100 | > 100 |  | > 100 | > 100 |  | > 100 | > 100 | > 100 | > 100 | 
7 | C=CCOCn1ccc(=O)[nH]c1=O | > 100 | > 100 |  | > 100 | > 100 | > 100 | > 100 | > 100 | > 100 | > 100 | > 100
8 | COC1OC(CO)C(O)C(OC(=O)c2cc(O)c(O)c(O)c2)C1OC(=O)c1cc(O)c(O)c(O)c1 (stereo unspecified) |  | > 100 |  | > 100 | > 100 | 42.1 | > 100 | 55.7 | > 100 | > 100 | > 100
9 | N=C1C(=N)c2ccccc2-c2ccccc21 | 1.57 | 3.4 |  | 2.72 | 1.16 | 2.98 | 2.36 | 0.325 | 2.88 | 3.66 | 3.57
10 | COC(=O)[C@H](Cc1ccccc1)NC(=O)N1CCN(C(=O)N[C@@H](Cc2ccccc2)C(=O)OC)CCN(C(=O)N[C@@H](Cc2ccccc2)C(=O)OC)CC1 | > 100 | > 100 | > 100 | > 100 |  | > 100 | > 100 | > 100 | > 100 | > 100 | > 100
11 | COC(=O)C1(O)c2ccccc2N=C2C(=O)c3ccccc3N21 (stereo unspecified) |  | > 100 | > 100 | > 100 | > 100 | > 100 |  | 41.8 | > 100 | > 100 | > 100
12 | CC1N(C)C(=O)OC12CCN(CCCC(=O)c1ccc(F)cc1)CC2 (stereo unspecified) | > 100 | > 100 |  | > 100 | > 100 | > 100 | > 100 | > 100 | > 100 | > 100 | > 100
13 | CCOC(=O)c1c(NC(=O)Nc2ccccc2)c(C(N)=O)c2n1CCCCC2 | > 100 | > 100 | > 100 | > 100 | > 100 | > 100 | > 100 |  | > 100 |  | > 100
14 | O=C1CCCc2cc3c(cc21)CCC3C(=O)O (stereo unspecified) | > 100 | > 100 |  | > 100 | > 100 | > 100 | > 100 | > 100 | > 100 | > 100 | > 100
15 | CC1=NN(C(=O)Cc2ccccc2)C(=O)/C1=C\C=C\c1ccccc1 |  | > 100 |  | > 100 |  | > 100 | > 100 |  |  | > 100 | > 100
16 | COc1ccc2c3ccc4c(c3n(C)c2c1)C(=O)c1ccccc1C4=O |  |  | > 100 | > 100 |  | > 100 | > 100 |  |  | > 100 | > 100
17 | COC(=O)CC1C(=O)OCc2c1cc1n(c2=O)Cc2c-1nc1ccccc1c2OC (stereo unspecified) |  |  | > 100 | > 100 |  |  | > 100 |  |  | > 100 | 
18 | CCOP(=O)(OCC)/C(C#N)=C/c1ccco1 |  | > 100 | > 100 | > 100 |  | > 100 | > 100 |  |  | > 100 | > 100
19 | CCC1(N=[N+]=[N-])C(=O)Nc2cc(C)ccc2C1=O (stereo unspecified) |  | > 100 | > 100 | 51.2 |  | > 100 | > 100 |  |  | > 100 | 
20 | O=C(Cc1ccccc1)c1ccc2[nH]c(=O)oc2c1 |  | > 100 |  | > 100 | > 100 | > 100 | > 100 | > 100 | > 100 |  | 63.2
21 | COc1ccc(C2C(Cl)C(=O)N2NC(=O)Cc2ccccc2)cc1 (stereo unspecified) |  | > 100 |  | > 100 |  | > 100 | > 100 |  |  | > 100 | > 100
22 | S=C(Nc1cccc(Cl)c1)Nc1ccccn1 | > 100 | > 100 |  |  |  | > 100 | > 100 |  | > 100 | > 100 | > 100
23 | CC(C)(C)[C@H]1CO[C@]2(C)[C@@H]3C[C@@H]3C(=O)N12 |  | > 100 | > 100 | > 100 |  | > 100 | > 100 |  |  | > 100 | > 100
24 | O=c1cc(-c2cccc(OC(F)(F)F)c2)[nH]c2cc3c(cc12)OCO3 | > 100 | > 100 | > 73.6 | > 100 |  |  | > 35.7 |  | > 100 | > 100 | 9.16
